Like-named read-outs stand apart in the source and are kept apart here.

Data set [1] has as its system Parkinson's disease. The conditions noted are these: systemic application; cited from earlier work.
For data set [2], the system named is Parkinsonian patients. The conditions noted are these: three patients; continuous i.v. infusion replacing oral levodopa; cited from earlier work.
Data set [3] in a line: Intracerebral dialysis: extracellular fluid dopamine levels in the striatum after implantation of dopamine containing EVA pellets. As to the method: Male Sprague-Dawley Ras (150-200 g) were anaesthetized with pentobarbitone (60 mg/kg) and placed in a David Kopf stereotaxic frame. The skull was exposed and a 4 mm diameter hole drilled centered at coordinates A +0.4 mm and R 2.6 mm using the Paxinos and Watson coordinates. The right cortex was aspirated using a mild vacuum down to the striatal surface (ventral - 3 mm). Pellets were implanted with the uncoated pore, when present, facing ventrally and imbedded in the body of the striatum. Both control, non-dopamine containing pellets, and dopamine containing (2 mg) pellets were implanted. In vivo release was measured on the third, twentieth and sixty-fifth days. Intracerebral Dialysis Method:
Rats were anaesthetized with pentobarbitone (60 mg/kg) and placed in the Kopf stereotaxic frame. The skull was exposed and a Carnegie Medicin dialysis probe (4 mm membrane length, 0.5 mm o.d., 5,000 m.w. cut off) implanted into the striatum at Paxinos and Watson coordinates A +2.1, R (or L) 1.9, V -7 mm. Probes were perfused with an artificial CSF medium, 1 mM Ca, pH 7.35, at a flow rate of 1.5 microliter/min using a CMA 100 pump. Fifteen minute samples were collected into 5 microliters of 0.5M perchloric acid. The probe was calibrated by measuring the recovery of standards of known concentration, 100 nM. Dialysates were immediately assayed by direct injection onto a highly sensitive reverse-phase, isocratic HPLC with an ESA 5100 coulochem detector. Chromatograms were completed within 11 minutes. After an initial period of "injury release", 60 to 90 minutes post probe implantation, stable concentrations of dopamine were measured for a minimum of three […] collections.
The first rat had probes inserted into the right striatum on the third and sixty-fifth days and in the left striatum on the sixty-fifth day post polymer implantation. The second rat had probes inserted into both the right and left striata on the twentieth day.

On data set [4], the source says:
Ethylene vinyl acetate slabs containing 0%, 30%, 40% and 50% dopamine by weight formed by solvent casting as previously described were punched out to form round discs, approximately 3.0 mm in diameter. These discs were then coated by an additional layer of ethylene vinyl acetate either (i) completely; (ii) completely except for one concave pinhole present on one surface (iii) completely except for two concave pinholes present, one on each surface; (iv) partially, with one surface coated and the other not coated; or (v) not coated at all.
The release of dopamine into 5 ml of a 150 mM NaCI, 0.2% EDTA solution was monitored by measuring the absorbance at 280 nm of the solution at various time points and by comparison to a linear standard curve comparing absorbance at 280 nm to concentration of dopamine in the same buffered solution. The results are portrayed as either the absolute mass released over the time course of 65 days or as the amount of dopamine released as a fraction of the total amount present in the pellet.
Samples of these solutions were injected into High Pressure Liquid Chromatography system designed to measure absolute quantities of dopamine and to distinguish dopamine from its oxidation products or other metabolites.

For data set [5] the following is noted: both in vitro and in vivo; cited from earlier work.
Data set [6] deals with behavioral deficits. The conditions noted are these: intracerebral injections; cited from earlier work.

As to `N[C@@H](Cc1ccc(O)c(O)c1)C(=O)O` [L-dopa], in data set [1], the “behavioral symptoms of Parkinson's disease” value is listed as “can be reduced”. Also, the clinical response result in data set [2] was “prolonged and stable clinical response”.
As to `NCCc1ccc(O)c(O)c1` [dopamine], the “persistence of dopamine release into the extracellular fluid of the implanted striatum” value in data set [3] (not evident on third day, seen by twentieth day) is reported as “persists for at least two months”. The “increase in dopamine levels” value in data set [3] (rat, in vivo) is > 200 fold. Moreover, the “dopamine concentration in the extracellular fluid (ECF)” value in data set [3] (rat, in vivo, 28800 min) came to 30.5 nM. For the same compound, the “dopamine level in the extracellular fluid (ECF)” value in data set [3] (rat, in vivo, 93600 min) is 36 nM. Also, the “level of dopamine in the right striatum relative to normal” value in data set [3] (third day) was “unchanged from normal”. In data set [4] (High Pressure Liquid Chromatography of release solutions), the “substance released that was dopamine (not oxidation products or other metabolites), HPLC” value was “greater than 99.9%”. Also, the release of dopamine entry in data set [4] (coated fully except for one hole, 30% loading, up to 65 days in vitro) is given as “linear release”; in data set [4] (disc coated on one side, 30%, 40% or 50% dopamine), “the release is not linear”; in data set [4] (disc containing 30%, 40% or 50% dopamine, fully coated, throughout the time period) it was “no release of dopamine”; in data set [4] (disc not coated, 30%, 40% or 50% dopamine), “release occurred rapidly, in a non-linear manner”; in data set [4] (fully coated except for two holes, 30% loading), “Virtual linear release”. In addition, the “initial release of dopamine (every thirty minutes over several hours)” value in data set [4] (coated fully except for one hole, 40% dopamine) is “release is constant”. Besides, in data set [5], the “release from EVA over an extended period of time” value is “linear, concentration and time-dependent release”.
Nerve Growth Factor: the behavioral deficits result in data set [6] is given as “reduces behavioral deficits”.

The record behind these values is US4883666A, “Controlled drug delivery system for treatment of neural disorders” (Massachusetts Institute of Technology, priority 1987, dated 1989).
